Assay results published in PMC7849011, “Defining the Antimalarial Activity of Cipargamin in Healthy Volunteers Experimentally Infected with Blood-Stage Plasmodium falciparum” (Antimicrobial Agents and Chemotherapy, 2021).

Assay: Population PK model (two-compartment)
Assay type: in vivo, human
Procedure: Data preparation, exploration, model definition, model evaluation and simulations were performed in R (version 3.5.1) and the R package IQRtools (version 1.0.6; IntiQuan, Basel, Switzerland) within the software package MonolixSuite 2018R2 (Lixoft, Antony, France). The MIC and the minimum parasiticidal concentration that achieves 90% of maximum effect (MPC90) were derived from the PK/PD model. Simulations were performed to predict the minimum effective single dose, defined as the dose that clears 10^9 parasites/ml. Further detail on PK/PD modeling methods is presented in Text S1.
Pharmacokinetic/Pharmacodynamic modelling methods and results […]
The objectives of the PK/PD modelling anal ysis w ere:
1. To develop a population PK model of cipar gamin in healthy subjects inoculated with blood stage P. falciparum .
2. To char acterize the PK/PD relationship between cipargamin pharmacokinetics and parasite cl ear ance in h eal th subjects inoculated with blood stage P. falcipar um .
3. To determine the minimum inhibitory concent ration (M IC ) of cipargamin .
4. To establish the minimum effective cipar gamin single dose required to kill 10 9
Data preparation, exploration, model definition, model evaluation and simulations were performed in R (version 3.5.1) and the R package IQRtools (version 1.0.6, IntiQuan GmbH, Basel, Switzerland) withi n the software package MonolixSuite2018R2 (Li xoft, Anton y, Fran ce) which implemen ts stochastic approx imation ex pectation-maximisation (SAEM) algorithm for parameter estimation.
One-, two- and three-compartment with different absorption and elimination models were tested. Zero- and first-order absorption models wi th or without lag time were examined. Data below the lower limit of quantitation ( LLO Q; 0.001 µg/ m L) were treated using a left - censoring method. Between subject vari abilit y ( BSV) of the PK parameters was assumed to be normally distributed on log -scale. The random effects across the par ameters within an individual were modelled according to a multivari ate normal distribution (MVN). BS V w as […]
supported by the data.The residual unexplained variabilit y (RUV) was tested using a proportional or combined error models.
Population PK/PD modelling
A sequential PK/PD modelling approach was used in which the empirical Bayes estimates of individual PK parameters were us ed as r egression parameters for the PK/P D model. The observations below the limit of detection (LOD; 10 parasites/mL) were mo del led using a l eft-censoring method. In this anal ysis, the changes in parasitemia over time in the presen ce of antimalarial dru g are ass umed to be a result of the differen ce b etween p ar asite growth rate (k grow ) and the r ate at wh ich parasites are killed b y the drug (k k ill ) with a baseline parasitemia (P L base ) at time t 0 (time of inoculation). Diff erent structural PK/PD models were tested to assess the relationship of cipar gamin plasma concentration on the parasite ki lling rate. The E max model assumed a direct effect of cipargamin plasma concent rations on parasite killing.
The turnover model assumed an indirect effect of cipargamin plasma concentrations on parasite killing due to lag in the PD processes (i.e. the kinetics of dru g-receptor binding). The effect compartment mod el assumed an indirect ef fect of cipar gamin plasm a concentration on parasite killing due to biophase equilibration. […]

## C[C@H]1Cc2c([nH]c3cc(Cl)c(F)cc23)[C@@]2(N1)C(=O)Nc1ccc(Cl)cc12 [cipargamin]
Final population PK model
  CL/F, estimate (RSE %): 5.5 (10.7) L/h
  Vc/F, estimate (RSE %): 64.4 (8.9) L
human, in vivo
  Q1/F, estimate (RSE %): 12.9 (9.0) L/h
  Vp1/F, estimate (RSE %): 107 (4.8) L
  ka, estimate (RSE %): 0.919 (4.6) /h
